From the supplement of paper PMC10307832

Legend:
Assay in all cases: relative viability (nuclei count vs DMSO), 5 days (fraction); higher = more cells survive
[1] = compound: CC1=CC=C(C=C1)C(=O)CN2C3=C(CCCC3)SC2=N [Pifithrin_alpha] + O=C(c1cc(Cc2n[nH]c(=O)c3ccccc23)ccc1F)N1CCN(C(=O)C2CC2)CC1 [Olaparib] (partner 8 µM)
Summary of the method: (§1)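 Lung cancer cell lines in 1536-well plates were dosed by pin tool the day after seeding, either with one drug alone or with a fixed anchor-drug dose plus five library-drug doses (not always all listed) in √10 steps. After 5 days, cells were fixed and their nuclei stained in one step (final 0.05% Triton X-100, 1% formaldehyde, 1 ug/ml Hoechst), then counted on 4× images. Relative viability is the nuclei count in treated wells divided by that in vehicle wells. Values are medians of duplicate plates.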

Axitinib + Palbociclib = compound: CNC(=O)c1ccccc1Sc1ccc2c(/C=C/c3ccccn3)n[nH]c2c1 [Axitinib] + CC(=O)c1c(C)c2cnc(Nc3ccc(N4CCNCC4)cn3)nc2n(C2CCCC2)c1=O [Palbociclib] (partner 0.5 µM)
Summary of the method: as §1

Axitinib + Foretinib = compound: CNC(=O)c1ccccc1Sc1ccc2c(/C=C/c3ccccn3)n[nH]c2c1 [Axitinib] + COc1cc2c(Oc3ccc(NC(=O)C4(C(=O)Nc5ccc(F)cc5)CC4)cc3F)ccnc2cc1OCCCN1CCOCC1 [Foretinib] (partner 0.25 µM)
Summary of the method: as §1

Bemcentinib + Decitabine = compound: Nc1nc(Nc2ccc3c(c2)CC[C@@H](N2CCCC2)CC3)nn1-c1cc2c(nn1)-c1ccccc1CCC2 [Bemcentinib] + Nc1ncn([C@H]2C[C@H](O)[C@@H](CO)O2)c(=O)n1 [Decitabine] (partner 2 µM)
Summary of the method: as §1

Cell Line	relative viability ([1]; first compound 1 µM)	relative viability ([1]; first compound 3.162 µM)	relative viability ([1]; first compound 10 µM)	relative viability ([1]; first compound 31.62 µM)	relative viability ([1]; first compound 100 µM)	relative viability (Axitinib + Palbociclib; first compound 0.005 µM)	relative viability (Axitinib + Palbociclib; first compound 0.01581 µM)	relative viability (Axitinib + Palbociclib; first compound 0.05 µM)	relative viability (Axitinib + Palbociclib; first compound 0.1581 µM)	relative viability (Axitinib + Palbociclib; first compound 0.5 µM)	relative viability (Axitinib + Foretinib; first compound 0.005 µM)	relative viability (Axitinib + Foretinib; first compound 0.01581 µM)	relative viability (Axitinib + Foretinib; first compound 0.05 µM)	relative viability (Axitinib + Foretinib; first compound 0.1581 µM)	relative viability (Axitinib + Foretinib; first compound 0.5 µM)	relative viability (Bemcentinib + Decitabine; first compound 0.04 µM)	relative viability (Bemcentinib + Decitabine; first compound 0.1265 µM)	relative viability (Bemcentinib + Decitabine; first compound 0.4 µM)	relative viability (Bemcentinib + Decitabine; first compound 1.265 µM)	relative viability (Bemcentinib + Decitabine; first compound 4 µM)
201T	0.843	0.891	0.601	0.564	0.619	0.376	0.361	0.335	0.351	0.343	1.07	1.06	0.972	1.17	1.21	0.827	0.903	0.893	0.979	0.868
A549		0.473	0.338	0.175	0.276						0.977	0.973	0.972	0.976	1.23	0.248	0.247	0.319	0.296	0.26
A-427	0.676	0.623	0.574	0.339	0.493	0.491	0.511	0.564	0.567	0.543	1.12	1.15	1.12	0.94	1.26	0.569	0.525	0.502	0.57	0.559
ABC-1		0.774	0.557	0.405	0.477	0.756		0.632	0.626	0.854	1.02	1.04	1.17	0.916	1.29	0.899	1.23	1.03	0.835	1.14
BEN	1.01	1.13	1.01	0.562	1.01	0.474	0.433	0.459	0.518	0.515	0.662	0.514	0.643	0.852	0.573	0.696	0.784	0.762	0.629	0.677
CAL-12T	0.706	0.631	0.535	0.46	0.574	0.586	0.508	0.41	0.525	0.522	1.13	1.08	1.15	1.17	1.21					
COR-L23	0.262	0.306	0.267		0.269	0.322	0.297	0.323	0.303	0.331	1.1	0.953	1.13	0.948	1.02	0.465	0.467	0.481	0.472	0.456
COR-L 105	0.489	0.426	0.477	0.425	0.447	0.456	0.434	0.38	0.438	0.37	0.973	1.12	1.16	1.05	1.49	0.593	0.721	0.678	0.67	0.667
Calu-6	0.534	0.536	0.46		0.427						0.955	0.902	0.855	0.904	0.947					
ChaGo-K-1	0.404	0.424	0.336	0.231	0.371	0.88	0.947	0.972	0.863	1	0.961	1	0.984	0.889	1	0.566	0.537	0.538	0.536	0.556
EBC-1	0.621	0.552	0.348	0.298	0.363						0.104	0.116	0.0984	0.0972	0.122					
EKVX	0.825	0.685	0.531	0.266	0.336	0.402	0.368	0.433	0.381	0.358	0.861	0.786	0.349	0.778	0.824	0.325	0.345	0.292	0.345	0.39
EMC-BAC-2	0.419	0.412		0.252	0.351	0.522	0.562	0.49	0.508	0.533	1.05	1.08	1.03	1.08	1.09	0.955	1	1.12	0.997	1.01
EPLC-272H	0.762	0.585	0.72	0.425	0.467	0.294	0.369	0.336	0.354	0.309	0.639	0.745	0.579	0.735	0.637	0.373	0.361	0.387	0.397	0.399
H3255	0.603	0.562	0.53	0.44	0.485	0.332	0.294	0.316	0.334	0.329	1.03	0.61	0.848	0.859	0.801		0.574	0.681	0.648	0.68
HARA	0.659	0.931	1	0.305	0.808	0.241	0.334	0.216	0.221	0.247	0.768	0.907	0.945	0.821	0.919	0.578	0.651	0.561	0.556	0.518
HCC-15	0.733	0.867	0.697	0.368	0.581	0.764	0.766	0.749	0.703	0.65	1.1	1.11	0.958	0.99	0.999	0.641	0.696	0.71	0.646	0.661
HCC-44	0.918	0.877	0.818	0.553	0.627	0.946	0.967	0.988	0.96	1.04						0.954	0.986	0.947	0.978	0.957
HCC-78		0.925	0.785	0.51	0.683	0.504	0.408	0.469	0.5	0.449	0.582	0.536	0.512	0.6	0.548	0.691	0.655	0.636	0.655	0.637

Cell Line	relative viability ([1]; first compound 1 µM)	relative viability ([1]; first compound 3.162 µM)	relative viability ([1]; first compound 10 µM)	relative viability ([1]; first compound 31.62 µM)	relative viability ([1]; first compound 100 µM)	relative viability (Axitinib + Palbociclib; first compound 0.005 µM)	relative viability (Axitinib + Palbociclib; first compound 0.01581 µM)	relative viability (Axitinib + Palbociclib; first compound 0.05 µM)	relative viability (Axitinib + Palbociclib; first compound 0.1581 µM)	relative viability (Axitinib + Palbociclib; first compound 0.5 µM)	relative viability (Axitinib + Foretinib; first compound 0.005 µM)	relative viability (Axitinib + Foretinib; first compound 0.01581 µM)	relative viability (Axitinib + Foretinib; first compound 0.05 µM)	relative viability (Axitinib + Foretinib; first compound 0.1581 µM)	relative viability (Axitinib + Foretinib; first compound 0.5 µM)	relative viability (Bemcentinib + Decitabine; first compound 0.04 µM)	relative viability (Bemcentinib + Decitabine; first compound 0.1265 µM)	relative viability (Bemcentinib + Decitabine; first compound 0.4 µM)	relative viability (Bemcentinib + Decitabine; first compound 1.265 µM)	relative viability (Bemcentinib + Decitabine; first compound 4 µM)
HCC-366	0.344	0.238	0.299		0.209	0.438	0.378	0.399	0.36	0.524	0.949	0.958	0.865	0.966	0.977	0.335	0.362	0.395	0.369	0.341
HCC-827	0.248	0.672	0.715	0.355	0.648	0.511	0.501	0.475	0.491	0.546	1.06	0.984	1.04	1.01	1.13	0.34	0.347	0.316	0.292	0.332
HOP-62	0.524	0.635	0.446	0.127	0.65	0.469	0.436	0.44	0.45	0.468	1.07	1.14	1.06	1.09	1.3	0.25	0.198	0.255	0.207	0.216
IA-LM	0.758	0.699	0.332	0.192	0.271						1.27	1.14	1.13	1.09	1.35					
LC-2-ad	0.756	0.739	0.683	0.444	0.555	0.473	0.532	0.485	0.503	0.523	0.871	0.891	0.917	0.761	0.959	0.79	0.724	0.824	0.817	0.756
LCLC-97TM1		0.39	0.33		0.289	0.27	0.263	0.199	0.201	0.239	0.847	0.977	0.926	0.896	0.918	0.248	0.212	0.217	0.207	0.252
LCLC-103H	0.772	0.817	0.644	0.52	0.686	0.475	0.464	0.493	0.474	0.451	0.747	0.867	0.787	0.764	0.85	0.739	0.735	0.738	0.812	0.764
LK-2	0.554	0.833	0.933		0.776	0.492	0.661	0.544	0.659	0.668	1.31	1.03	1.06	1.1	1.42	0.214	0.374	0.342	0.23	0.313
LOU-NH91	0.821	0.908	0.864	0.523	0.795	0.564	0.568	0.537	0.444	0.527	0.917	0.659	0.981	0.962	0.957	0.78	0.82	0.837	0.863	0.801
LU99A	0.248	0.242	0.277		0.236	0.408	0.416	0.394	0.438	0.417	0.901	0.851	0.818	0.894	0.936	0.918	0.882	0.899	0.975	0.987
NCI-H522	0.594	0.604	0.618	0.516	0.564	0.892	0.966	1.01	1.05	0.915						0.759	0.789	0.657	0.558	0.619
NCI-H596	0.634	0.589	0.679	0.492	0.513						0.504	0.861	0.803	0.873	0.818	1	1.04	1.09	1.1	1.08
NCI-H1299	0.964	1	0.985	0.514	0.794						1.06	1.04	1.08	1.08	1.24					
NCI-H1563											0.934	0.918	0.884	0.847	0.938					
NCI-H1623											0.948	0.846	0.758	0.838	0.885					
NCI-H1648	1.1	0.741	0.963	0.619	0.682	0.215	0.291	0.219	0.273	0.235						0.411	0.413	0.483	0.569	0.43
NCI-H1703	0.418	0.328	0.382	0.313	0.326						0.362	0.292	0.376	0.371	0.325					
NCI-H1792	0.469	0.348	0.272		0.255	0.654	0.635	0.592	0.564	0.654						0.582	0.741	0.594	0.454	0.63
NCI-H2228	0.681	0.634	0.605	0.647	0.549	0.926	0.664	0.615	0.614	0.882	0.877	0.95	0.974	0.842	0.943					
